Data published in patent US11058700B2, “Macrocyclic lactones and uses thereof as modulators of purinergic receptors” (City of Hope, priority 2015, dated 2021).

Tests used:
[1] = tested on: 4T1.2 cells; experiment: Cell viability (acid phosphatase assay) of cancer cells treated with Ivermectin; type: cell-based, mouse; conditions: for effect on Ivermectin-induced cell death: cells treated with Ivermectin (32 μM, 4 h in figure legends) in the presence of the agent
Method: Cell viability. Cancer cells were plated on 96 well flat-bottom plates and allowed to attach overnight. Cells were then pre-incubated with drugs for 1 h and treated with Ivermectin for 4 h. In the case of 24 h and 48 h incubations the cells, Ivermectin and drugs were plated together. All treatments and controls were done in triplicate wells and results were validated in at least two independent experiments. Following treatment the plates were washed once with PBS and cell viability was measured using the acid phosphatase assay. Briefly, cells were incubated for 1h at 37° C. in 100 μL assay buffer (0.16 M sodium acetate, 0.1% Triton-X-100, supplemented with 4-Nitrophenyl phosphate disodium salt hexahydrate, Sigma Aldrich, at 0.00263 g/ml). Reaction was stopped using 10 μL of 1N sodium hydroxide. Absorption at 405 nm was measured within 10 min using a multi-well plate reader. Mode of cell death and viability of cells in suspension was evaluated using flow cytometry. Briefly, cancer cells were pre-incubated with drugs for 30 min to 1 h, as indicated, treated with Ivermectin for 4 h in 5 ml FACS tubes , washed twice in PBS and stained with PE-conjugated Annexin V and 7AAD (1 μl per 100 μl/200,000 cancer cells) for 15 min.

[2] = tested on: P2X4/P2X7/Pannexin-1 channels; experiment: Membrane permeabilization to YOPRO-1; type: cell-based, mouse; conditions: 4T1.2 cells, 3 mM ATP and 32 μM Ivermectin
Method: FIGS. 3A-3G. Dual roles of ATP and purinergic signaling in Ivermectin's killing. FIG. 3A: Depletion of extracellular ATP with Apyrase (2500 μunits/ml) exacerbates killing of 4T1.2 cell by Ivermectin. FIG. 3B: Extracellular Ca^2− and ATP contain Ivermectin-induced cell swelling. 4T1.2 cells were treated with 32 μM Ivermectin for 4 h in the presence of 1 mM EDTA or 2500 μunits/ml Apyrase. FIG. 3C: Ivermectin (0.5-32 μM) and high concentrations of extracellular ATP (0.3-3 mM) synergistically open pannexin-1 channels and permeabilize the membrane on live cells (7AAD-positive dead cells were gated out). 4T1.2 cells were treated for 30 min as indicated in the presence of 7 AAD and 5 μM YOPRO-1. FIG. 3D: Analysis of supernatants from Ivermectin-treated murine and human TNBC cells showing rapid release of ATP followed by its transient depletion. Depletion of extracellular ATP with Apyrase (2500 μunits/ml) was used as a positive control. FIG. 3E: Analysis of membrane-proximal ATP levels using cancer cells engineered to express a membrane-bound Luciferase. […] FIG. 3G: The P2X7-specific inhibitor KN-62 (1-10 μM) blocks Ivermectin cytotoxicity (IVM 8-32 μM, 4-48 h treatments). Asterisk (*) indicates p<0.05 relative to untreated or Ivermectin alone controls, respectively.
FIGS. 10A-10L. Extracellular Dual roles of ATP and purinergic signaling in Ivermectin's killing. 4T1.2 cells were treated with Ivermectin for 4 h in the presence of different inhibitors at μM concentrations as indicated. FIG. 10A: The non-specific P2 purinergic receptor inhibitor Suramin (4-400 μM) exacerbates Ivermectin-induced cell death. FIG. 10B: Inhibition of extracellular ATPases with PSB 069 protects against Ivermectin cytotoxicity. FIG. 10C: Blockade of pannexin-1 channels with Panx-1 mimetic blocking peptide (Anaspec) and Probenecid at μM concentrations as indicated exacerbates killing. […] FIG. 10E: ATP plays a transiently protective role only in the mouse but not human breast cancer cells. 4T1.2 and MDA-MB-231 cells were treated with 32 μM Ivermectin for 4 h in the presence of ATP at mM concentrations as indicated. FIG. 10F: qPCR showing up-regulation of P2X4 and P2X7 receptors on several murine cancer cell lines, including 4T1.2 and DD-Her2/neu (breast), and B16 (melanoma). […] Expression of P2X and P2Y purinergic receptors, NOX family members, GABA, and Glycine receptors was analyzed using publicly available breast cancer cell lines datasets. Statistically significant (p<0.05) up-regulation and down-regulation in breast cancer versus normal cells is shown in red and blue, respectively. FIG. 10H: Correlation between sensitivity to Ivermectin and ATP across various human cancer cell lines. Cancer cells were treated for 24 h with 3 mM ATP or Ivermectin at 16 and 32 μM doses as indicated. […]

| SMILES | effect on Ivermectin-induced cell death [1] | block of ATP+Ivermectin-induced membrane permeabilization to YOPRO-1 [2] | KN-62 needed to protect against Ivermectin-induced cell death [1] | long-term protection against Ivermectin ([1]; 24 h, 12 μM IVM) |
| --- | --- | --- | --- | --- |
| Clc1cccc(-c2nnnn2Cc2cccnc2)c1Cl [A438079] | did not observe any protection | suppressed permeabilization to YOPRO-1 in a dose-dependent fashion |  |  |
| CN([C@@H](Cc1ccc(OS(=O)(=O)c2cccc3cnccc23)cc1)C(=O)N1CCN(c2ccccc2)CC1)S(=O)(=O)c1cccc2cnccc12 [KN-62] | effective at blocking Ivermectin-induced necrotic and apoptotic cell death | suppressed permeabilization to YOPRO-1 in a dose-dependent fashion | More than 1 μM | long-term protection against Ivermectin and ATP that extended up to 24 h |
| COc1ccc(S(=O)(=O)N(CCO)c2ccccc2CN(C)C/C=C/c2ccc(Cl)cc2)cc1 [KN-93] | effectively blocked Ivermectin-induced cell death | most potent at blocking ATP- and Ivermectin-induced membrane permeabilization to YOPRO-1 |  |  |
